Laboratory results taken from PMC12583094, “A novel antioxidant peptide from black soybean [Glycine max (L.) Merr.] with verified MPO interaction and multi-scale antioxidant activity” (Frontiers in Nutrition, 2025).

Tests used:
Format in all cases: cell-based, human
HaCaT cells [1] = test: ROS quantification in H2O2-treated HaCaT cells (DCFH-DA); conditions: 500 μg/mL H2O2 1 h, no peptide; DCFH-DA fluorescence 488/525 nm normalized per mg protein; p < 0.0001 vs control (541.25 ± 25.03 AU); mean ± SD, n = 3
Method: After digestion and resuspension, HaCaT cells were seeded into a 6-well plate at a concentration of 1 × 10^4 cells/ml, with 2 mL of culture medium added to each well. The cells were incubated for 24 h to allow attachment and adaptation. After 24 h, the cells were divided into treatment groups. The control and blank groups were replaced with an equal volume of normal culture medium, while the treatment group was incubated with a 1,000 μg/mL peptide solution for 24 h. After that, both the control and treatment groups were treated with 500 μg/mL H2O2 and incubated for an additional 1 h.
After incubation, the medium was discarded, and DCFH-DA probe was diluted in serum-free medium at a 1:1000 ratio. Then, 1.5 mL of the diluted solution was added to each well, and the cells were incubated at 37 °C in the dark for 20 min. The blank group was treated with an equal volume of serum-free medium. […] The fluorescence intensity was measured using a fluorescence spectrophotometer with an excitation wavelength of 488 nm and an emission wavelength of 525 nm. The total protein concentration of each sample was determined using the BCA method. The fluorescence value was then normalized to the fluorescence intensity per milligram of protein, and the results were statistically analyzed.

HaCaT cells [2] = test: CCK8 cell viability, concentration screening in HaCaT cells; conditions: 1 h
Method: (§1) HaCaT cell recovery, culture, and subculture were performed with reference to the method described by Yusha Zi et al., with some modifications ([23]). For recovery, cryopreserved HaCaT cells were retrieved from liquid nitrogen storage and quickly thawed in a 37 °C water bath with gentle shaking. Just before complete thawing, the tube was removed from the water bath, and the cell suspension was immediately transferred into a 15 mL centrifuge tube containing 9 mL of pre-warmed complete medium. The complete medium consisted of DMEM supplemented with 10% fetal bovine serum (FBS) and 1% penicillin–streptomycin (P/S). Cells were centrifuged at 800 rpm for 5 min at 4 °C. After discarding the supernatant, the cell pellet was resuspended in 5 mL of fresh complete medium and transferred to a culture flask equipped with a ventilated cap. Cells were incubated in a humidified incubator at 37 °C with 5% CO₂ and 95% humidity.
For subculturing, when cell confluence reached approximately 80%, the medium was discarded, and the cells were gently rinsed three times with 2 mL of PBS. Then, 1 mL of 0.25% trypsin solution was added, and the flask was incubated at 37 °C for about 1 min. Once the cells became round and partially detached (as observed under a microscope), 3 mL of complete medium was added to terminate the digestion. The cell suspension was gently pipetted to disperse the cells and transferred to a 15 mL centrifuge tube. After centrifugation at 800 rpm for 5 min at 4 °C, the supernatant was discarded. The pellet was resuspended in fresh medium and seeded into new culture flasks at a ratio of 1:3, followed by incubation under the same culture conditions.
After digestion and resuspension, HaCaT cells were seeded into a 96-well plate at a concentration of 1 × 10^^4 cells/ml, with 100 μL of complete culture medium added to each well. Three wells with no cells were treated with an equal volume of complete culture medium as the blank group. The cells were incubated for 24 h to allow attachment. For the experiment, the control and blank groups were replaced with an equal volume of fresh medium, while the treatment groups were treated with a concentration gradient of 100, 200, 500, 1,000, and 1,500 μg/mL H2O2 and peptide samples. The H2O2 group was incubated for 1 h, while the peptide sample group was incubated for 24 h. After incubation, the original medium was discarded, and 100 μL of CCK8 working solution (prepared from 90% DMEM + 10% CCK8 reagent) was added to each well. The blank group, which contained no cells, was used as the reference. The plate was incubated for an appropriate period, and the absorbance at 450 nm was measured using a microplate reader. Cell viability was calculated using the following formula:
Cell viability(%)=100%×(ODsample−ODblank)/(ODcontrol−ODblank).

HaCaT cells [3] = conditions: 500 μg/mL H2O2 1 h, no peptide; CCK8, 450 nm; p < 0.0001 vs control; mean ± SD, n = 3
Method: as §1, with “humidity. For subculturing, when cell confluence reached approximately 80%, the medium was discarded, and the cells were gently rinsed three times with 2 mL of PBS. […] The plate was incubated for an appropriate period, and the absorbance at 450 nm was measured using a microplate reader. Cell viability was calculated using the following formula: Cell viability(%)=100%×(ODsample−ODblank)/(ODcontrol−ODblank). […] The absorbance was measured and cell viability was calculated under the same conditions.” for “humidity.”

SMILES: OO [H₂O₂, hydrogen peroxide]
- ROS level, H2O2 alone (HaCaT cells [1]): 2128.33 ± 127.37 AU
- effect on HaCaT cell viability at 200 μg/mL H2O2 (HaCaT cells [2]; H2O2 200 μg/mL, CCK8, vs control, p < 0.01): A significant reduction
- HaCaT cell viability after 500 μg/mL H2O2 (screening) (HaCaT cells [2]; H2O2 500 μg/mL, CCK8, 450 nm, mean ± SD, n = 3): 49.05 ± 4.24%
- dead HaCaT cells at 1500 μg/mL H2O2 (HaCaT cells [2]; H2O2 1500 μg/mL, CCK8, 450 nm): over 90%
- HaCaT cell viability, H2O2 alone (HaCaT cells [3]): 47.82 ± 1.87%
